# Active and inactive are the calls of the source. The calls are words filed in the database; no cut-off is given here.
# Tests used:
# [1] = test system: A549; experiment: Antiproliferative activity against human A549 cells assessed as inhibition of cell proliferation incubated for 48 hrs by MTT assay; type: functional, cell-based; conditions: A549, 48 h
# [2] = test system: NCI-H1975; experiment: Antiproliferative activity against human NCI-H1975 cells assessed as inhibition of cell proliferation incubated for 48 hrs by MTT assay; type: functional, cell-based; conditions: NCI-H1975, 48 h
# [3] = test system: NCI-H3122; experiment: Antiproliferative activity against human NCI-H3122 cells assessed as inhibition of cell proliferation incubated for 48 hrs by MTT assay; type: functional, cell-based; conditions: NCI-H3122, 48 h
# [4] = Cytotoxicity against human WI-38 cells assessed as inhibition of cell proliferation incubated for 48 hrs by MTT assay; type: toxicity, cell-based
# [5] = Cytotoxicity against human WI-26 AV4 cells assessed as inhibition of cell proliferation incubated for 48 hrs by MTT assay; type: toxicity, cell-based
# [6] = Cytotoxicity against human MCF-10A cells assessed as inhibition of cell proliferation incubated for 48 hrs by MTT assay; type: toxicity, cell-based
# [7] = Cytotoxicity against human Intestine 407 cells assessed as inhibition of cell proliferation incubated for 48 hrs by MTT assay; type: toxicity, cell-based
# [8] = Therapeutic index, ratio of IC50 for cytotoxicity against human WI-38 cells to IC50 for antiproliferative activity against human A549 cells by MTT assay; type: toxicity, cell-based; conditions: WI-38 cells versus A549 cells, read-out: Ratio IC50
# [9] = Therapeutic index, ratio of IC50 for cytotoxicity against human WI-26 AV4 cells to IC50 for antiproliferative activity against human A549 cells by MTT assay; type: toxicity, cell-based; conditions: WI-26 AV4 cells versus A549 cells, read-out: Ratio IC50
# [10] = Therapeutic index, ratio of IC50 for cytotoxicity against human MCF-10A cells to IC50 for antiproliferative activity against human A549 cells by MTT assay; type: toxicity, cell-based; conditions: MCF-10A cells versus A549 cells, read-out: Ratio IC50
# [11] = Therapeutic index, ratio of IC50 for cytotoxicity against human Intestine 407 cells to IC50 for antiproliferative activity against human A549 cells by MTT assay; type: toxicity, cell-based; conditions: Intestine 407 cells versus A549 cells, read-out: Ratio IC50
# [12] = Therapeutic index, ratio of IC50 for cytotoxicity against human WI-38 cells to IC50 for antiproliferative activity against human NCI-H1975 cells by MTT assay; type: toxicity, cell-based; conditions: WI-38 cells versus NCI-H1975 cells, read-out: Ratio IC50
# [13] = Therapeutic index, ratio of IC50 for cytotoxicity against human WI-26 AV4 cells to IC50 for antiproliferative activity against human NCI-H1975 cells by MTT assay; type: toxicity, cell-based; conditions: WI-26 AV4 cells versus NCI-H1975 cells, read-out: Ratio IC50
# [14] = Therapeutic index, ratio of IC50 for cytotoxicity against human MCF10A cells to IC50 for antiproliferative activity against human NCI-H1975 cells by MTT assay; type: toxicity, cell-based; conditions: MCF10A cells versus NCI-H1975 cells, read-out: Ratio IC50
# [15] = Therapeutic index, ratio of IC50 for cytotoxicity against human Intestine 407 cells to IC50 for antiproliferative activity against human NCI-H1975 cells by MTT assay; type: toxicity, cell-based; conditions: Intestine 407 cells versus NCI-H1975 cells, read-out: Ratio IC50
# [16] = Therapeutic index, ratio of IC50 for cytotoxicity against human WI-38 cells to IC50 for antiproliferative activity against human NCI-H3122 cells by MTT assay; type: toxicity, cell-based; conditions: WI-38 cells versus NCI-H3122 cells, read-out: Ratio IC50
# [17] = Therapeutic index, ratio of IC50 for cytotoxicity against human WI-26 AV4 cells to IC50 for antiproliferative activity against human NCI-H3122 cells by MTT assay; type: toxicity, cell-based; conditions: WI-26 AV4 cells versus NCI-H3122 cells, read-out: Ratio IC50
# [18] = Therapeutic index, ratio of IC50 for cytotoxicity against human MCF-10A cells to IC50 for antiproliferative activity against human NCI-H3122 cells by MTT assay; type: toxicity, cell-based; conditions: MCF-10A cells versus NCI-H3122 cells, read-out: Ratio IC50
# [19] = Therapeutic index, ratio of IC50 for cytotoxicity against human Intestine 407 cells to IC50 for antiproliferative activity against human NCI-H3122 cells by MTT assay; type: toxicity, cell-based; conditions: Intestine 407 cells versus NCI-H3122 cells, read-out: Ratio IC50
# [20] = test system: A549; experiment: Anti-clonogenic activity against human A549 cells assessed as reduction in size and number of surviving clones incubated for 7 days by crystal violet staining method; type: functional, cell-based; conditions: A549, 168 h
# [21] = test system: WI-38; experiment: Cytotoxicity against human WI-38 cells assessed as reduction in size and number of surviving clones incubated for 7 days by crystal violet staining method; type: toxicity, cell-based
# [22] = test system: A549; experiment: (§1) Radiosensitization activity against human A549 cells assessed as potentiation of radiation-induced cytotoxicity by measuring dose modification factor at 0.5 uM pre-irradiated with gamma radiation at 4.5 Gy followed by incubation with drug and measured after 7 days by clonogenic assay relative to control; type: functional; conditions: time 7 day
# [23] = test system: WI-38; experiment: Radioprotective activity against human WI-38 cells assessed as inhibition of radiation-induced cytotoxicity by measuring dose modification factor at 0.5 uM incubated for 24 hrs followed by irradiation with gamma radiation at 2 to 12 Gy by clonogenic assay relative to control; type: functional
# [24] = Increase in GPx activity in human WI-38 cells at 10 uM incubated for 24 hrs relative to control; type: functional
# [25] = Increase in TxrR activity in human WI-38 cells at 10 uM incubated for 24 hrs relative to control; type: functional
# [26] = test system: WI-38; experiment: Upregulation of GPx1 mRNA expression in human WI-38 cells at 10 uM incubated for 6 hrs by real-time PCR analysis; type: functional, cell-based
# [27] = Upregulation of GPx1 mRNA expression in human WI-38 cells at 10 uM incubated for 24 hrs by real-time PCR analysis relative to control; type: functional
# [28] = Upregulation of TrxR1 mRNA expression in human WI-38 cells at 10 uM incubated for 6 hrs by real-time PCR analysis relative to control; type: functional
# [29] = Upregulation of TrxR1 mRNA expression in human WI-38 cells at 10 uM incubated for 24 hrs by real-time PCR analysis relative to control; type: functional
# [30] = test system: WI-38; experiment: Radioprotective activity against human WI-38 cells assessed as recovery of radiation-induced decrease in GPx activity at 10 uM pretreated for 24 hrs followed by irradiation with gamma radiation for 24 hrs; type: functional, cell-based; conditions: time 48.0 hrs
# [31] = test system: WI-38; experiment: Radioprotective activity against human WI-38 cells assessed as recovery of radiation-induced decrease in TrxR activity at 10 uM pretreated for 24 hrs followed by irradiation with gamma radiation for 24 hrs; type: functional, cell-based; conditions: time 48.0 hrs
# [32] = test system: GR; experiment: Reduction in intracellular activity of GR in human WI-38 cells at 150 uM incubated for 24 hrs relative to control; type: toxicity, cell-based
# [33] = test system: GST; experiment: Reduction in intracellular activity of GST in human WI-38 cells at 150 uM incubated for 24 hrs relative to control; type: toxicity, cell-based
# [34] = Drug reactivity with trichloromethyl peroxyl radical (CCl3O2.) assessed as rate constant by ABTS2- based competition assay; type: physicochemical
# [35] = Drug reactivity with H2O2 assessed as rate constant by absorbance based analysis; type: physicochemical
# [36] = Drug reactivity with Hypochlorous acid (HOCl) assessed as rate constant by CBA based competition assay; type: physicochemical
# [37] = Drug reduction in DMSO-d6 in presence of 1 equiv. NAC by 77Se NMR spectroscopy; type: physicochemical
# [38] = test system: A549; experiment: as §1, with “4” for “4.5”; type: functional; conditions: time 7 day
SMILES,IC50 [1] [µM],IC50 [2] [µM],IC50 [3] [µM],IC50 at 48 h [4] [µM],IC50 at 48 h [5] [µM],IC50 at 48 h [6] [µM],IC50 at 48 h [7] [µM],selectivity ratio [8],selectivity ratio [9],selectivity ratio [10],selectivity ratio [11],selectivity ratio [12],selectivity ratio [13],selectivity ratio [14],selectivity ratio [15],selectivity ratio [16],selectivity ratio [17],selectivity ratio [18],selectivity ratio [19],IC50 [20] [µM],other results
O=C(O)CC[Se][Se]CCC(=O)O,15.2,10.6,21.5,171,151,61.2,483,11.2,9.9,4,31.7,16.1,14.2,5.7,32.5,7.9,7,2.8,3.2,1.2,"IC50 [21]: 17.9 µM; Ratio [22]: 0.87; Ratio [23]: 1.12; fold change (FC) [24]: ~1.34; fold change (FC) [25]: ~2; Activity [26]: inactive; Activity ([26]; tested as the 2H-labelled form): inactive; fold change (FC) [27]: ~1.73; fold change (FC) [28]: ~4.02; fold change (FC) [29]: ~6.06; Activity [30]: Active; Activity ([30]; tested as the 2H-labelled form): Active; Activity [31]: Active; Activity ([31]; tested as the 2H-labelled form): Active; inhibition at 24 h, 150 µM [32]: 32%; inhibition at 24 h, 150 µM [33]: 24%; K [34]: 1 10^8/M/s; K [35]: 5.2 10^-2/M/s; K [36]: 1.6 10^5/M/s; Drug metabolism [37]: Metabolite_Notdetected"
[2H]C([2H])([Se][Se]C([2H])([2H])C([2H])([2H])C(=O)O)C([2H])([2H])C(=O)O,15.2,4.6,46.5,1000,550,150,507,65.7,36.2,9.8,33.3,217,120,45.5,110,21.5,11.8,22.4,10.8,0.9,"IC50 [21]: 35.5 µM; Ratio [38]: 0.83; Ratio [23]: 1.16; fold change (FC) [24]: ~1.53; fold change (FC) [25]: ~1.71; fold change (FC) [27]: ~1.69; fold change (FC) [28]: ~2.04; fold change (FC) [29]: ~5.17; inhibition at 24 h, 150 µM [32]: 13%; inhibition at 24 h, 150 µM [33]: 8%; K [34]: 0.8 10^8/M/s; K [35]: 3.3 10^-2/M/s; K [36]: 9.5 10^4/M/s"

# — ChEMBL document CHEMBL5532758, “Deuterium labeling improves the therapeutic index of 3,3'-diselenodipropionic acid as an anticancer agent: insights from redox reactions” (RSC Med Chem, 2024)
